Starred links: 1 amine or outer side, 2 acyl side, 3 side chain; linkers in the order of their positions; H or OH if unused. Positions of bridges follow the written chain, without caps; N, C: chain ends. Non-standard residues stand in square brackets, D forms with d. Residues, ends and D or L forms follow the SMILES beside them. Chains are numbered I, II in the order given. Actinocin(9to1) = Cc1c2oc3c(C)ccc(C(=O)[*:1])c3nc-2c(C(=O)[*:2])c(N)c1=O; NMeV = CN[C@H](C(=O)O)C(C)C; Sar = CNCC(=O)O
What was measured:
J774 macrophages = test: Flow cytometry binding/internalization of labelled peptide, J774; assay type: cell-based, mouse; conditions: n = 3
peritoneal macrophages = test: Flow cytometry binding/uptake of LL-37-FAM, peritoneal macrophages; assay type: cell-based, C57BL/6 mice
[1] = test system: intracellular Mycobacterium tuberculosis in macrophages; conditions: cited from earlier work; for autophagy activation and M.tb elimination: via induction of cathelicidin LL-37
cell surface GAPDH, J774 = assay type: cell-based, mouse; conditions: KN-62 100 nM, 4 h; J774 wild-type; n = 3
[2] = test system: GAPDH KD and wild-type cells; conditions: induced with actinomycin D; cited from earlier work
THP-1 cells = test: Endocytosis of BSA-FITC; assay type: cell-based; conditions: BSA-FITC 10 μg, 37°C, 30 min; PMA-activated THP-1
[3] = Downstream effects of scrambled peptide; conditions: statement on negative control peptide
TLR-4, THP-1 cells = test: TLR-4 membrane expression on LPS treatment; assay type: cell-based; conditions: LPS 1 ug, 24 h; PMA-activated THP-1

For “5-FAM-LC-LLGDFFRKSKEKIGKEFKRIVQRIKDFLRNLVPRTES [LL-37-FAM]”, the “LL-37 membrane accumulation and uptake, IFNγ-treated” value (J774 macrophages; IFNγ-treated subsets vs control cells) was “initial higher accumulation of FAM-LL-37 at their membrane, followed by increase in LL-37 uptake into the cytoplasm” and the “cell surface LL-37 binding and uptake, M.tb infected” value (peritoneal macrophages) was “significantly enhanced”.
For `CN([C@@H](Cc1ccc(OS(=O)(=O)c2cccc3cnccc23)cc1)C(=O)N1CCN(c2ccccc2)CC1)S(=O)(=O)c1cccc2cnccc12` [KN-62, 1-(N,O-bis(5-Isoquinolinesulfonyl)-N-methyl-L-tyrosyl)-4-phenylpiperazine], the “effect on LL-37-induced anti-mycobacterial effects” value ([1]; KN-62) is listed as “does not inhibit LL-37-induced anti-mycobacterial effects”, the “cell surface GAPDH expression with KN-62” value (cell surface GAPDH, J774) is listed as “decrease in cell surface GAPDH expression” and the “LL-37 uptake with KN-62” value (J774 macrophages; KN-62 100 nM, 4 h, J774 wild-type) is listed as “inhibition of LL-37 uptake into cells”.
In the case of `Cc1c2oc3c(C)ccc(C(=O)N[C@@H]4C(=O)N[C@H](C(C)C)C(=O)N5CCC[C@H]5C(=O)N(C)CC(=O)N(C)[C@@H](C(C)C)C(=O)O[C@@H]4C)c3nc-2c(C(=O)N[C@@H]2C(=O)N[C@H](C(C)C)C(=O)N3CCC[C@H]3C(=O)N(C)CC(=O)N(C)[C@@H](C(C)C)C(=O)O[C@@H]2C)c(N)c1=O` [actinomycin D] (I: T[dV]P[Sar][NMeV] / II: T[dV]P[Sar][NMeV]; ester I:1-I:C, II:1-II:C; linker I:N-II:N via Actinocin(9to1)), the “induction of apoptosis, GAPDH KD vs wild-type” value [2] is given as “comparable”.
In the case of `O=C(O)CCCc1ccccc1` [phenylbutyrate], the “autophagy activation and M.tb elimination” value [1] is listed as “activate the antibacterial autophagy mechanism”.
In the case of `C=C1/C(=C\C=C2/CCC[C@]3(C)[C@@H]([C@H](C)CCCC(C)(C)O)CC[C@@H]23)C[C@@H](O)C[C@@H]1O` [vitamin 1,25-D3], the “autophagy activation and M.tb elimination” value [1] is listed as “activate the antibacterial autophagy mechanism”.
With BSA: BSA-FITC, endocytosis control the “endocytosis of BSA, empty vector vs GAPDH KD” value (THP-1 cells) was “could equally well carry out endocytosis of BSA”.
For “GLKLRFEFSKIKGEFLKTPEVRFRDIKLKDNRISVQR [scrambled peptide]”, the “downstream effects of scrambled peptide” value [3] was “does not show downstream effects like the LL-37 peptide”.
With lipopolysaccharide the “TLR-4 membrane expression, empty vector and GAPDH KD” value (TLR-4, THP-1 cells) was “upregulation of TLR-4 membrane expression levels”.

— paper PMC10315065 (Journal of Innate Immunity, 2023)
